Assays:
[1] = system: Hapten VII sera (polyclonal antibodies); assay: Sera direct EIA with Hapten VII sera and competitor enzyme conjugate; format: binding, mice
Procedure: The competitors A-E and Hapten VII were conjugated to the enzyme, amino modified Horseradish Peroxidase (HRP) (horseradish peroxidase commercially available from Sigma Chemical Co. (No. P-6782), St. Louis, Mo.; amino modified per R. Hsiao and H. Royer, Archives Biochem. Biophys., 198, 379-385 (1979) to give 6-24 free amines), using the carbodiimide mediated carboxyl activation procedure described for Hapten VII in Example 24. Hapten and competitor load were determined by UV/Vis spectroscopy, also as described for Hapten VII.
(§1) The direct EIA (immoblized antibody and competitor enzyme conjugate) was performed as follows. Serum or monoclonal antibody supernatant stored at -20° C. was diluted 1,000-40,000 fold with PBS which contained 0.1% Tween-20. This solution was dispensed (500 ul) into donkey anti-mouse second antibody coated tubes (DAM Tubes commercially available from Millipore Corp., Bedford, Mass.) and incubated at room temperature overnight. The antisera solution was decanted from the tubes and the tubes washed 3 times with distilled water. Non-specific sites in the tubes were blocked with 600 ul of BSA blocking buffer (EIA Blocking Buffer commercially available from Millipore Corp., Bedford, Mass.) and incubated for 2 hours at room temperature or overnight at 4° C. The blocking buffer was decanted and the tubes allowed to dry under ambient room conditions for at least 2 hours. The assay was performed by adding 500 ul of assay diluent (1% methanol (v/v) and 0.005% Tween-20 (w/v) in distilled water) to the required number of tubes followed by 10 ul of a methanol solution of the analyte (PCB congener). After a 5 minute incubation at room temperature, the solution was decanted and the tubes rinsed 3-4 times with tap water. The horseradish peroxidase competitor or Hapten VII conjugates were diluted 1,000-60,000 fold from 2-5 mg/ml stock solutions in PBS with conjugate diluent (Enzyme Conjugate Diluent commercially available from Millipore Corp., Bedford, Mass.). The enzyme conjugate (200 ul) was added to the tubes followed by a 5 minute incubation at room temperature. The conjugate solution was decanted and the tubes rinsed 3-4 times with tap water. Enzyme substrate solution (500 ul, KPL No. 50-76-04 commercially available from KPL Laboratories, Gaithersburg, Md.) was added and the tubes were incubated at room temperature for 5-15 minutes. The enzyme reaction was stopped with the addition of 500 ul of 1N HCl. The OD of the solution was determined at 450 nm. The data was plotted using Log (Congener Concentration) versus B/Bo (B=Sample Absorbance, Bo=Sample Blank Absorbance).
The direct EIA (Method 19) was used to evaluate sera samples taken on day 120.

[2] = system: anti-hapten antibody (sera of rabbits immunized with KLH-hapten I conjugate); assay: Inhibition ELISA with BSA-Competitor 11 coating conjugate (Methods A,B); format: binding, rabbit; conditions: for I10 (mdl): Table 3, selected analytes, NR/>100 ppm, NR--No Assay Response
Procedure: A solution of the coating antigen, consisting of 100 ng of a BSA conjugate of Hapten I or Exemplified Competitor 11 above, in 50 μl of PBS (phosphate buffered saline, pH 7.4, 10 mM phosphate, 150 mM NaCl), was dispensed into each well of a 96-well microtiter plate (Dynatech Immulon-2 commercially available from Dynatech, Inc., Chantilly, Va.) and incubated at 28° C. (+/-0.5° C.) for 2 hours. The coating antigen solution was then removed from the wells and the plate was washed three times with PBS. All wash steps utilized a Cambridge Technology, Inc. Platewasher 260, commercially available from Cambridge Technology, Inc. Cambridge, Mass. The remaining active sites in the wells were blocked with a 150 μl solution of 1% BSA in PBS with 0.02% sodium azide for 2 hours at 28° C. After removal of the blocking solution the plate was washed three times with PBS. Serum stored at -20° C. was freshly thawed and diluted 100-250,000 fold with the 1% BSA in PBS/DT blocking buffer (PBS buffer containing 10% by volume dimethylformamide and 0.5% Triton X-100). This solution (50 μl/well) was then dispensed into replicate wells (3-6) on the plate, which was covered and incubated for 1 hour at room temperature (RT). After removal of the incubation solution the plate was washed three times with PBS. The labeled antibody, anti-rabbit IgG (whole molecule)--alkaline phosphatase conjugate, (Sigma No. A-8025 commercially available from Sigma Chemical Company, St. Louis, Mo.), diluted 1/500 with BSA/PBS, was added in a quantity of 50 μl/well and incubated for 1 hour at 28° C. After removal of the second antibody solution the plate was washed three times with PBS. The wells were then washed (one time) with 10 mM diethanolamine (pH 9.4) which contained 0.5 mM magnesium chloride. Substrate solution (50 μl; 10 mg p-nitrophenylphosphate in 10.0 ml of the diethanolamine/magnesium chloride) was added to each well and incubated for 30 minutes at 28° C. Sodium hydroxide (50 μl of a 0.05 N solution) was added to each of the wells to stop the reaction. The final Absorbance in each well was determined at 405 nm using a Cambridge Technologies, Inc. Model 750 Microplate Reader commercially available from Cambridge Technologies, Inc., Cambridge, Mass. The titer of the sera was determined by a Log Sera Dilution versus Absorbance plot and the EC50 value.
Inhibition ELISA followed the basic assay procedure described above with the following addition: The serum sample was diluted to its EC80 value (400-1000 fold) with the 1% BSA in PBS blocking buffer to which had been added 10% dimethylformamide, volume/volume (v/v), and 0.5% Triton® X-100 (PBS-DT). An aqueous analyte solution (e.g., Aroclor® 1248) was prepared by solution of the analyte in dimethylformamide followed by dilution to the required concentration in PBS-DT. The analyte solution was added to the antibody solution to achieve the desired concentration of analyte (typically 1 ppb-100 ppm) and the resulting solution was incubated overnight at room temperature. This solution (50 μl/well) was then dispensed into replicate wells (3-6) on the plate and the assay completed as above. The minimum detection limit (I10 ) and the I50 values were determined using a Log (Analyte Concentration in parts per billion--ppb) versus Absorbance or by converting absorbance to the B/Bo ratio where B=Sample Absorbance and Bo=Absorbance of the Blank Sample. […] This figure illustrates the significant improvement in PCB sensitivity as measured by both minimum detection limit (B/Bo=0.9) and assay range (B/Bo=0.5) on using a competitor versus a hapten as the competition reagent.
This assay format gave a minimum detection limit (I10) of approximately 0.2 ppm and an I50 of approximately 3 ppm.

[3] = system: Hapten VII sera (polyclonal antibodies); assay: Sera indirect EIA with Hapten VII sera and Competitor C; format: binding, mice; conditions: day 120 sera, Competitor C, FIG. 7
Procedure: The indirect EIA (immobilized competitor BSA conjugate) was performed as described by Karu, et al. (A. E. Karu, et al., J. Agric. Food Chem., 42, 301-309 (1994)).
The indirect EIA (Method 18) was used to evaluate sera samples taken on day 120.

[4] = relative to 2,3,7,8-TCDD = 1.0; cited from earlier work
[5] = molecular target: Hapten VII derived monoclonal antibody S2B1; assay: Monoclonal antibody direct EIA with Competitor D enzyme conjugate; format: binding; conditions: for estimated I50: FIG. 9, 4-parameter logistic fits; for I50: FIG. 9, monoclonal antibody S2B1, text value
Procedure: as §1
Monoclonal antibodies were derived essentially as described by Karu, et al. (A. E. Karu, et al., J. Agric. Food Chem., 42, 301-309 (1994)) using Hapten VII BSA conjugate and Competitor C BSA conjugate for the primary screen.
FIG. 9 illustrates the specificity of a direct EIA based on the Hapten VII derived monoclonal antibody S2B1 and Competitor D enzyme conjugate. Both 3,3',4,4'-tetrachlorobiphenyl and 3,3',4,4',5-pentachlorobiphenyl give ca. 1 ppb I50 values. Cross-reactions of a number of congeners which are significant Aroclor(R) consitutents are <0.001%.

[6] = BSA-Competitor 11 coating conjugate, FIG. 1 Plot 3 (analyte Aroclor 1248)
[7] = Table 7, Hapten VII sera and Competitor D direct EIA
[8] = direct EIA, day 120 sera, Competitor C, FIG. 8

Structure (SMILES): O=C(O)CCCCc1cc(Cl)ccc1Cl [Competitor 11, 5-(2,5-Dichlorophenyl)pentanoic acid]
- I50 ([1]; Table 6, I50 of analyte 3,3',4,4'-tetrachlorobiphenyl with the listed competitor, Hapten VII sera): 6-8 ppb
- Assay sensitivity versus Hapten VII enzyme conjugate based assay ([1]; in words, Table 6): significantly more sensitive
- I50 [2, 6]: approximately 3 ppm
- minimum detection limit (I10) [2, 6]: approximately 0.2 ppm

Structure (SMILES): Clc1ccc(Cl)c(Cl)c1 [1,2,4-trichlorobenzene]
- I10 (mdl) [2]: > 100 ppm

Structure (SMILES): Oc1cc(Cl)ccc1Cl [2,5-dichlorophenol]
- I10 (mdl) [2]: > 100 ppm

Structure (SMILES): Clc1cc(Cl)c(-c2cc(Cl)c(Cl)cc2Cl)cc1Cl [2,2',4,4',5,5'-hexachlorobiphenyl]
- cross-reaction relative to 3,3',4,4'-tetrachlorobiphenyl [3]: < 0.0%
- I50 [1, 7]: > 20,000 ppb
- cross reaction relative to 3,3',4,4'-tetrachlorobiphenyl [1, 8]: < 0.05%
- TEF [4]: less than 0.00001

Structure (SMILES): O=C(O)COc1ccc(Cl)cc1Cl [2,4-dichlorophenoxyacetic acid]
- I10 (mdl) [2]: > 100 ppm

Structure (SMILES): Clc1cccc(Cl)c1 [1,3-dichlorobenzene]
- I10 (mdl) [2]: > 100 ppm

Structure (SMILES): Clc1ccccc1Cl [1,2-dichlorobenzene]
- I10 (mdl) [2]: > 100 ppm

Structure (SMILES): Clc1ccc(-c2cc(Cl)c(Cl)c(Cl)c2)cc1Cl [BZ No. 126, 3,3',4,4',5-pentachlorobiphenyl]
- TEF [4]: 0.1
- estimated I50 [5]: 1.2 ppb
- I50 [5]: ca. 1 ppb

Structure (SMILES): COc1cccc(Cl)c1 [3-chloroanisole]
- I10 (mdl) [2]: > 100 ppm

Structure (SMILES): Clc1ccc(-c2ccc(Cl)c(Cl)c2)cc1Cl [BZ No. 77, 3,3',4,4'-tetrachlorobiphenyl]
- I50 [3]: < 10 ppb
- I50 [1, 7]: 3 ppb
- I50 [1, 8]: 1.4 ppb
- TEF [4]: 0.01
- estimated I50 [5]: 0.9 ppb
- I50 [5]: ca. 1 ppb

Structure (SMILES): Clc1ccc(Cl)cc1 [1,4-dichlorobenzene]
- I10 (mdl) [2]: > 100 ppm

Structure (SMILES): Oc1cccc(Cl)c1 [3-chlorophenol]
- I10 (mdl) [2]: > 100 ppm
